In ChEMBL document CHEMBL1143297, “Synthesis and CHK1 inhibitory potency of Hymenialdisine analogues” (Bioorg Med Chem Lett, 2009) one finds Activity and IC50 data, which are given here for 23 molecules.

Molecules are shown by their SMILES. Active and inactive are the calls of the source. The rule behind the calls is not given here.

For the first test, the target named is Receptor-type tyrosine-protein kinase FLT3 (Homo sapiens) (UniProt P36888). Description: Inhibition of FLT3.
Sequence of Receptor-type tyrosine-protein kinase FLT3 (Homo sapiens) (P36888 whole entry): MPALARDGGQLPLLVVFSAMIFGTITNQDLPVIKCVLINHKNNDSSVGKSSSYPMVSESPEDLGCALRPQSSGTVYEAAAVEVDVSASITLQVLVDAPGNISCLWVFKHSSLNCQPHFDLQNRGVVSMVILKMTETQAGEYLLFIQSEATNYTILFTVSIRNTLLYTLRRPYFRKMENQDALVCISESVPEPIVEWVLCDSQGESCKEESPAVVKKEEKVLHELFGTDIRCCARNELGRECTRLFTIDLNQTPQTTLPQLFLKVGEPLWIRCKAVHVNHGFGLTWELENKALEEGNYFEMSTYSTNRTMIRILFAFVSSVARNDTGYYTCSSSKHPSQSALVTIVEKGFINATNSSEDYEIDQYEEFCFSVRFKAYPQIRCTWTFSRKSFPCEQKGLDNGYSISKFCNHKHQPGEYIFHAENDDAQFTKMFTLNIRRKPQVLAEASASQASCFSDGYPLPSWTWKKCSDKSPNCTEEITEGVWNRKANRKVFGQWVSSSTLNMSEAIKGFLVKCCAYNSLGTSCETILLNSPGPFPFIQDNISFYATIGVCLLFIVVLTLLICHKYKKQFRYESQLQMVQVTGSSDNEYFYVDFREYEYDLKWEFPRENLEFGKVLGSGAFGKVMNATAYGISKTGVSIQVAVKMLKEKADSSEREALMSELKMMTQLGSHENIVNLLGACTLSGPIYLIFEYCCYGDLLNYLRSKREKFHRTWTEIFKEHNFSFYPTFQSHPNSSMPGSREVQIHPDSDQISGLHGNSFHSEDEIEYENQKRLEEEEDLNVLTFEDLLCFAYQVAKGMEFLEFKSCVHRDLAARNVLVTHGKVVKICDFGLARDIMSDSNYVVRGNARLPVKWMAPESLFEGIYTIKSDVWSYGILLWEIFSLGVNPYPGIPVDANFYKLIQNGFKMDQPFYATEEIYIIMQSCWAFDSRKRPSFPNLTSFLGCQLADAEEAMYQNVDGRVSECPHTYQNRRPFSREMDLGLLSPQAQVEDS
On to `NC1=NC(=O)/C(=C2\CCNC(=O)c3[nH]c4c(Br)csc4c32)N1`, for which the outcome was Active.

The target in another test is Serine/threonine-protein kinase SIK1 (Homo sapiens) (UniProt P57059). Kind of test: Inhibition of SIK.
Sequence of Serine/threonine-protein kinase SIK1 (Homo sapiens) (P57059 whole entry): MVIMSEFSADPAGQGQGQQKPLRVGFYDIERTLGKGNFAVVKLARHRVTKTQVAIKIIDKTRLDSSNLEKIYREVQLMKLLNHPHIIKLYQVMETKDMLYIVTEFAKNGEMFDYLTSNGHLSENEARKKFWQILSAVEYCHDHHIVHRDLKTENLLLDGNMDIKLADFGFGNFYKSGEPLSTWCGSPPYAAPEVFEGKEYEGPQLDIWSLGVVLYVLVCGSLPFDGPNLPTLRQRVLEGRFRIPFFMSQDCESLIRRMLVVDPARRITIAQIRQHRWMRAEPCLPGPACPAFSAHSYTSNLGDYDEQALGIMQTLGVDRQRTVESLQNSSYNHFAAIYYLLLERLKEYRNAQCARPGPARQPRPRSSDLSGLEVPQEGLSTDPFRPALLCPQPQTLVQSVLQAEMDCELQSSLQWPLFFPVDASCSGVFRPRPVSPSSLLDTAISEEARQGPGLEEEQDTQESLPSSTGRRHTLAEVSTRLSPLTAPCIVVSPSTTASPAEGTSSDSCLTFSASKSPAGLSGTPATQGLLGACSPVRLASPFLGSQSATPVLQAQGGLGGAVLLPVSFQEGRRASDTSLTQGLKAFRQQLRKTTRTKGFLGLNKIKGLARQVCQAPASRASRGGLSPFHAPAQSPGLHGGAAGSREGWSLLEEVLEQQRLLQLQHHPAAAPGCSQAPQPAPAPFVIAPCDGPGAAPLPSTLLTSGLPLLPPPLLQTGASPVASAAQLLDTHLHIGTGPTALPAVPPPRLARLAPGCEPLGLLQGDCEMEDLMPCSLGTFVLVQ
As for `NC1=NC(=O)/C(=C2\CCNC(=O)c3[nH]c4c(Br)csc4c32)N1`, the outcome was Active.

A further test deals with Glycogen synthase kinase-3 beta (Homo sapiens) (UniProt P49841). Description: Inhibition of GSK3-beta.
Sequence of Glycogen synthase kinase-3 beta (Homo sapiens) (P49841 whole entry, looked up): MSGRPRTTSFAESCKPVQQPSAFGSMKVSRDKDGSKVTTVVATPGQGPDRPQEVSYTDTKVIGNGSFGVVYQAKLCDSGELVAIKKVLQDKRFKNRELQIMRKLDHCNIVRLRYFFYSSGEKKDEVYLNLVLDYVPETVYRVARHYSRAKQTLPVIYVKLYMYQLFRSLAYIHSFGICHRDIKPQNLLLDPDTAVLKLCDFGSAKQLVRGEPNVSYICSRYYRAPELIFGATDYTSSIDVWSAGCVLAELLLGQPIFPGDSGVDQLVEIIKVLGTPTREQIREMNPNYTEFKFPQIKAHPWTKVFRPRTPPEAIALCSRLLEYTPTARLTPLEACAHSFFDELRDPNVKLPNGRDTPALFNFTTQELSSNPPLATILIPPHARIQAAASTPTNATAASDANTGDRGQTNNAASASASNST
As for `NC1=NC(=O)/C(=C2\CCNC(=O)c3[nH]c4c(Br)csc4c32)N1`, the outcome was Active.

The target of a further test is T1, NUAK family SNF1-like kinase 1 (Homo sapiens) (UniProt O60285).
T1 sequence (whole entry): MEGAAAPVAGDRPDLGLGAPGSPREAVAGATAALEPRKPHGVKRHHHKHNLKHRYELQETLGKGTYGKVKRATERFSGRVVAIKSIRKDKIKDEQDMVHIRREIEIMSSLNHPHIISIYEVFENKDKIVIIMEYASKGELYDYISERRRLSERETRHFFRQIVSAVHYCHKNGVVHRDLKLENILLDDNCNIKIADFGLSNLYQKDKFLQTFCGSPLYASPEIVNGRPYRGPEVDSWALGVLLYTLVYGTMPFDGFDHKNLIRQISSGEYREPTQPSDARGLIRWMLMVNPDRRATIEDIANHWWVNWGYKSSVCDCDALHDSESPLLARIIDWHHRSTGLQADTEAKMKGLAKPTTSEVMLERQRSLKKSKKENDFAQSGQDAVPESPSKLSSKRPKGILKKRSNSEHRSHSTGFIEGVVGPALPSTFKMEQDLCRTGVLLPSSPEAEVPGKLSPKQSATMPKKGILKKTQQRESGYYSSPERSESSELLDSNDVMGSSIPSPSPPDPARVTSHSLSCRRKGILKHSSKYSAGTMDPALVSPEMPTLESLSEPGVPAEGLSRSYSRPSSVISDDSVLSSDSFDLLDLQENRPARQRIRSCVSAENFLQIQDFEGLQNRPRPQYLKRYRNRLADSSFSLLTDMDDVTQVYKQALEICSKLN
Description: Inhibition of ARK5.
On to `NC1=NC(=O)/C(=C2\CCNC(=O)c3[nH]c4c(Br)csc4c32)N1`, for which the outcome was Active.

The next test addresses T2, Serine/threonine-protein kinase Chk1 (Homo sapiens, UniProt O14757).
T2 sequence (O14757 whole entry): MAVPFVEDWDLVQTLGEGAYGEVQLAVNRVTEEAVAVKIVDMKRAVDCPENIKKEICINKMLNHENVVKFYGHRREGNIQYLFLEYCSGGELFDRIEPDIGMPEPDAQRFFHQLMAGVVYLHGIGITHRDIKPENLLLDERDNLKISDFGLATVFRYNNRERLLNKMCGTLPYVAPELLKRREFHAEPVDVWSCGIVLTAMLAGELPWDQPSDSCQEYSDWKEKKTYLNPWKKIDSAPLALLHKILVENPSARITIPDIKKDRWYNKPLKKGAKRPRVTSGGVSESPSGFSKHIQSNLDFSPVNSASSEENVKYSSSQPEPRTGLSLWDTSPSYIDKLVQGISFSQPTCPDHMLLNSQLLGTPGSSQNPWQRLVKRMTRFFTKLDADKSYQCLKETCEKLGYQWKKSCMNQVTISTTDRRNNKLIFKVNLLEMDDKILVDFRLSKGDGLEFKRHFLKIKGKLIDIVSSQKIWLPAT
Description: Inhibition of CHK1.
Regarding `NC1=NC(=O)/C(=C2\CCNC(=O)c3[nH]c4ccsc4c32)S1`, inhibition was half-maximal at 180 nM (IC50).
On the same count and under the same terms, next, `NC1=NC(=O)/C(=C2\CCNC(=O)c3[nH]c4c(sc5ccccc54)c32)S1`: above 10000 nM.
Regarding `NC1=NC(=O)/C(=C2\CCNC(=O)c3[nH]c4c(-c5ccccc5)csc4c32)N1`, the IC50 (commonly the concentration needed to halve the response being measured) amounted to 1300 nM.
The molecule `NC1=NC(=O)/C(=C2\CCNC(=O)c3[nH]c4c(sc5ccccc54)c32)N1` came in with a half-inhibitory concentration (IC50) of 230 nM.
In turn, `N#Cc1csc2c3c([nH]c12)C(=O)NCC/C3=C1/NC(N)=NC1=O` showed an IC50 of 29 nM.
`COc1ccc(Cn2c3c(c4scc(Br)c42)/C(=C2\NC(N)=NC2=O)CCNC3=O)cc1` gave a half-inhibitory concentration (IC50) above 10000 nM.
The same measure, in the same setting: with `NC1=NC(=O)/C(=C2\CCNC(=O)c3[nH]c4cc(Cl)sc4c32)N1` the figure was 300 nM; with `O=C(O)CNC1=NC(=O)/C(=C2\CCNC(=O)c3[nH]c4c(Br)csc4c32)N1`, 260 nM; with `NC1=NC(=O)/C(=C2\CCNC(=O)c3[nH]c4c(Cl)c(Cl)sc4c32)N1`, 890 nM.
`NC1=NC(=O)/C(=C2\CCNC(=O)c3[nH]c4ccsc4c32)N1` had an IC50 of 150 nM.
For `NC1=NC(=O)/C(=C2\CCNC(=O)c3[nH]c(Br)cc32)N1` [HYMENIALDISINE], the midpoint of inhibition, the IC50, lay at 1900 nM.
On to `NC(=O)c1csc2c3c([nH]c12)C(=O)NCC/C3=C1/NC(N)=NC1=O`, for which half-maximal inhibition (IC50) required 150 nM.
The molecule `Cn1c2c(c3sccc31)/C(=C1\NC(N)=NC1=O)CCNC2=O` showed an IC50 above 10000 nM.
Same read-out and setting: with `O=C1N=C(NCCO)N/C1=C1/CCNC(=O)c2[nH]c3ccsc3c21` the figure was 1700 nM; with `NC1=NC(=O)/C(=C2\CCNC(=O)c3[nH]c4c(Br)csc4c32)N1`, 14 nM.
On the same count and under the same terms, with `NC1=N/C(=C2/CCNC(=O)c3[nH]ccc32)C(=O)N1` [DEBROMOHYMENIALDISINE] the figure was 330 nM; with `NC1=NC(=O)/C(=C2\CCNC(=O)c3[nH]c4c(Cl)csc4c32)N1`, 140 nM.
In turn, `O=C1N=C(NCCO)N/C1=C1/CCNC(=O)c2[nH]c3c(Br)csc3c21` had a concentration for half-maximal inhibition (IC50) of 280 nM. Against the preceding molecule, the IC50 is about 2-fold higher.
Molecule `Nc1nc(C2=C3C(=Nc4ccccc43)C(=O)NCC2)c(O)[nH]1` yielded an IC50 of 470 nM.
The same measure, in the same setting: next, `NC1=NC(=O)/C(=C2\CCNC(=O)c3[nH]c4c(Br)csc4c32)S1`: 190 nM.
`NC1=NC(=O)/C(=C2\CCNC(=O)c3[nH]c(Br)c(Br)c32)N1` registered an IC50 of 100 nM.
Still for that read-out and setting: with `NC1=NC(=O)/C(=C2\CCNC(=O)c3[nH]c4c(-c5ccccc5)csc4c32)S1` the figure was above 10000 nM.
`NC1=NC(=O)/C(=C2\CCNC(=O)c3[nH]c4cc(Br)sc4c32)N1` came in with an IC50 of 460 nM. This lies in the sub-micromolar range.
